We go through 1 compound from article PMC7132963, “NTP42, a novel antagonist of the thromboxane receptor, attenuates experimentally induced pulmonary arterial hypertension” (BMC Pulmonary Medicine, 2020).

The assay concerns the target T1, TPβ isoform of the human T Prostanoid receptor (thromboxane receptor, TP) (Homo sapiens, UniProt P21731).
T1 construct: gene TBXA2R; TPβ isoform, stably over-expressed in HEK 293 cells (HEK.TPβ line)
T1 sequence (P21731 1-328 limits assumed): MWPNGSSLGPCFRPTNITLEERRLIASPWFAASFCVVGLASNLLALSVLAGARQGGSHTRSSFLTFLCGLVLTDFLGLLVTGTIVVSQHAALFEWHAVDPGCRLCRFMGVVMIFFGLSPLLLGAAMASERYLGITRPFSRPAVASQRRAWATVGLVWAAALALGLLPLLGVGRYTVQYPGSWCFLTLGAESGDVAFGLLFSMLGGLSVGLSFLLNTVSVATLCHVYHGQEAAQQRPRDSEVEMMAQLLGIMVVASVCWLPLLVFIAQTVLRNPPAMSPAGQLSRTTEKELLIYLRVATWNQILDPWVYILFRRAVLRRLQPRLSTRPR
As to the kind of experiment: antagonism of U46619-stimulated intracellular calcium mobilization in HEK.TPβ cells (also vs 8-iso-PGF2α, IC50 […]). It is filed as cell-based.

Molecules are shown by their SMILES.

For orientation: IC50 means the concentration needed to halve the response being measured. For `CC(C)(C)NC(=O)NS(=O)(=O)c1cc(C#N)ccc1Oc1cccc(-c2ccc(OC(F)F)cc2)c1` [NTP42], the IC50 amounted to 8.86 ± 3.07 nM.
